Measured values taken from paper PMC8588536, “Iridal-Type Triterpenoids Displaying Human Neutrophil Elastase Inhibition and Anti-Inflammatory Effects from Belamcanda chinensis” (Molecules, 2021).
“Also recorded” adds a separate entry of the source.

Assays:
[1] = molecular target: T1, Human neutrophil elastase (HNE) (Homo sapiens, UniProt P08246); experiment: Fluorescence quenching binding affinity to HNE; conditions: inhibitor 7.8–31.2 µM; for Kd: read-out: KA (association constant of the complex of enzyme and quencher) (converted); for KSV (Stern-Volmer quenching constant): λEx 260 nm, λEm 280–400 nm
T1 construct: purchased Sigma-Aldrich
T1 sequence (P08246 30-267): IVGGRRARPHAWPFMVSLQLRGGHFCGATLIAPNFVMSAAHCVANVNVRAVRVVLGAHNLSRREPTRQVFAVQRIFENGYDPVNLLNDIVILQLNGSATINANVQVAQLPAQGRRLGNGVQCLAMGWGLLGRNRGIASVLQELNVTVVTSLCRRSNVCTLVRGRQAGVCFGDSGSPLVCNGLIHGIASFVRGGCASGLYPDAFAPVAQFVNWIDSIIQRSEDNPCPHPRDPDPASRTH
Description: To measure fluorescence from the HNE enzyme, 10 μL of 0.01 unit/mL enzyme solution with 180 μL of Tris-HCl buffer (0.02 mM) was accurately added into the 96-well black immunoplates. Then, 10 μL of incremental concentrations (7.8–31.2 μΜ) of inhibitors were added into each well. All fluorescence spectra were measured from 280 to 400 nm with emission slits regulated to 2.0 nm, and the excitation wavelength was 260 nm. The Stern–Volmer quenching constant (KSV) was calculated using Equation (5). All experiments were conducted in triplicate, and the mean values were calculated. (5) […]=1+KSV[Q], where F0 and F are the fluorescence intensities in the absence and presence of quencher (Q). KSV is the Stern–Volmer quenching constant [LM^−1]. For static quenching, the correlation between the fluorescence intensity and the concentration of quencher for the series of reactions can be estimated by Equation (6). (6) log[(F0−F)/F]=logKA+nlog[Q]f.
F0 and F are the fluorescence intensities in the absence and presence of inhibitor; KA is the binding constant; n is the number of binding sites of the enzyme; Qf is the concentration of inhibitor.

[2] = test system: LPS-stimulated RAW264.7 cells; experiment: LPS-induced morphological changes (macrophage activation); format: cell-based, mouse; conditions: pre-treatment 1 or 3 µg/mL
Description: The mouse macrophage cell line RAW264.7 was obtained from the American Type Culture Collection (ATCC, Manassas, VA, USA). The cells were cultured in DMEM supplemented with 10% fetal bovine serum (FBS), penicillin (100 U/mL), and streptomycin (100 μg/mL) at 37 °C with 5% CO2. The medium was replaced every 2 days. After treatment with chemicals, the cell morphological changes were observed under a microscope and images are captured before cell viability assay.

[3] = test system: NO production in LPS-stimulated RAW264.7 cells; experiment: Nitrite levels (NO production), Griess method; format: cell-based, mouse; conditions: 1 or 3 µg/mL 2 h prior to LPS 1 µg/mL for 16 h; p < 0.05
Description: Nitrite levels were determined using the Griess method, as described previously (Jeong et al., 2016). Briefly, RAW264.7 cells (5 × 10^4 cells/well) were cultured in a 24-well plate. The cells were pretreated with triterpenoids (1 or 3 µg/mL) 2 h prior to lipopolysaccharides (LPS, 1 µg/mL) treatment for 16 h. Supernatants were collected and centrifuged at 2451× g for 10 min. The (50 μL) of supernatants were mixed with equal volumes of Griess reagent (1% sulfanilamide, 0.1% n-l-naphthylethy-lenediamine dihydrochloride, and 2% phosphoric acid), and incubated for 10 min. The optical density was measured at 550 nm, and the nitrite levels were calculated from a standard curve generated from sodium nitrite.

[4] = test system: IL-1β mRNA in LPS-stimulated RAW264.7 cells; experiment: IL-1β mRNA expression by RT-PCR; format: cell-based, mouse; conditions: 1 or 3 µg/mL, n = 6, p < 0.05
Description: (§1) Total RNA was isolated from cultured RAW264.7 cells using TRIzol reagent (Ambion®, Carlsbad, CA, USA) according to the manufacturer’s instructions. First strand cDNA was synthesized from the total RNA (3 μg) using oligo dT (DiaStar RT Kit, SolGent, Daejeon, Korea) and was used as a template for PCR amplification with G-Taq polymerase (Cosmogenetech, Seoul, Korea). The first-strand cDNA was quantified using a spectrophotometer (NanoDrop® ND-1000, NanoDrop Technologies, Wilmington, […], USA). The quantified cDNA was used as a template. PCR assay was performed with specific primers for inducible nitric oxide (iNOS), IL-1β, and TNF-α. The PCR steps included initial denaturation at 94 °C for 5 min, then 28 cycles at 94 °C for 30 s, 57 °C for 30 s, and 72 °C for 30 s, and a final extension step at 72 °C for 10 min. The amplified PCR products were separated in 1.5% agarose gel, and the gel was stained with ethidium bromide. The bands were visualized using the iBright^TM CL1500 imaging system (Thermo Scientific Fisher/Life Technologies Holdings Pte Ltd., Singapore). The DNA fragments were directly sequenced with the ABI PRISM® 3100-Avant Genetic Analyzer (Applied Biosystems, Carlsbad, CA, USA).

[5] = test system: TNF-α mRNA in LPS-stimulated RAW264.7 cells; experiment: TNF-α mRNA expression by RT-PCR; format: cell-based, mouse; conditions: 1 or 3 µg/mL, n = 6, p < 0.05
Description: as §1

[6] = test system: IL-1β in LPS-stimulated RAW264.7 cells; experiment: IL-1β concentration by ELISA; format: cell-based, mouse; conditions: 1 or 3 µg/mL 2 h prior to LPS 1 µg/mL for 16 h; n = 6, p < 0.05
Description: (§2) RAW264.7 cell (2 × 10^5 cells/well) were cultured in a 6-well plate for 24 h and treated with compounds (1 or 3 µg/mL) 2 h prior to LPS treatment, followed by LPS (1 µg/mL) for 16 h. The concentration of pro-inflammatory cytokines in the collected supernatant was quantified using an ELISA kit (R&D system, Minneapolis, MN, USA) according to the manufacturer’s instructions. Briefly, 50 μL of assay diluent, sample, and standards were added to the ELISA well plate, which were pre-coated with anti-mouse IL-1β and TNF-α antibody. The plates were then covered with adhesive strip, agitated, and incubated for 2 h at room temperature. The ELISA well-plate was washed five times with a wash buffer, then 100 μL of mouse IL-1β and TNF-α conjugates was added and incubated at room temperature for 2 h. The plate was washed five times, 100 μL of substrate solution was added to each well, and incubated for 30 min in the dark. The reaction was quenched by the addition of 100 μL stop solution to each well, and the absorbance was read 450 nm/570 nm with an ELISA reader (Molecular Devices, Sunnyvale, CA, USA).

[7] = test system: TNF-α in LPS-stimulated RAW264.7 cells; experiment: TNF-α concentration by ELISA; format: cell-based, mouse; conditions: 1 or 3 µg/mL 2 h prior to LPS 1 µg/mL for 16 h; n = 6, p < 0.05
Description: as §2

Compound | n (number of binding sites of the enzyme) [1] | Kd [1] [µM] | KSV (Stern-Volmer quenching constant) [1] [L/mol] | effect on LPS-induced morphological changes [2] | LPS-induced NO production [3] | LPS-upregulated IL-1β mRNA level [4] | LPS-upregulated TNF-α mRNA level [5] | LPS-upregulated IL-1β concentration [6] | LPS-upregulated TNF-α concentration [7]
CC(C)=CCCC(C)=CCC(O)C(C)=CCCC1(C)C(CCCO)C(=C(C)C=O)CCC1(C)O (stereo not drawn) [Compound 2, iridobelamal A] | 0.9734 | 50.3 | 18160 | ameliorated | significantly reduced; also recorded: dose-dependent inhibition | noticeably decreased | noticeably decreased | noticeably decreased | noticeably decreased
CC(C)=CCC/C(C)=C/C[C@@H](O)/C(C)=C/CC[C@@]1(C)[C@H](CCCO)/C(=C(/C)C=O)CC[C@]1(C)O [Compound 1, isoiridogermanal] | 1.0039 | 24.3 | 41660 | ameliorated | significantly reduced | noticeably decreased | noticeably decreased | noticeably decreased | noticeably decreased
